Laboratory results: patent US10544106B2, “Certain chemical entities, compositions, and methods” (NeuPharma, Inc., priority 2016, dated 2020)

The compounds below were run against BTK (Homo sapiens (Human), UniProt Q06187) (assay: Z'-LYTE kinase inhibition assay against BTK). Conditions: compound at 100 nM; ATP concentration at Km.
Assay type: biochemical
Method: Inhibitory activities of compounds against BTK, EGFR T790M, EGFR L858R, and EGFR L858R/T790M were measured using Z′-LYTE® Method from Life Technologies as briefly described in the following.
Test Compounds are screened in 1% DMSO (final) in the well. For 10 point titrations, 3-fold serial dilutions are conducted from the starting concentration. All ATP Solutions are diluted to a 4× working concentration in Kinase Buffer (50 mM HEPES pH 7.5, 0.01% BRIJ-35, 10 mM MgCl2, 1 mM EGTA). Peptide/Kinase Mixtures are diluted to a 2× working concentration in the appropriate Kinase Buffers as described below. • (i) Peptide/Kinase Mixtures for measurement of EGFR (ErbB1) L858R: • The 2×EGFR (ErbB1) L858R/Tyr 04 mixture is prepared in 50 mM HEPES pH 7.5, 0.01% BRIJ-35, 10 mM MgCl2, 4 mM MnCl2. 1 mM EGTA, 2 mM DTT. The final 10 μL Kinase Reaction consists of 0.2-1.68 ng EGFR (ErbB1) L858R and 2 μM Tyr 04 in 50 mM HEPES pH 7.5, 0.01% BRIJ-35, 10 mM MgCl2, 2 mM MnCl2, 1 mM EGTA, 1 mM DTT. After the 1 hour Kinase Reaction incubation, 5 μL of a 1:64 dilution of Development Reagent B is added. • (ii) Peptide/Kinase Mixtures for measurement of EGFR (ErbB1) T790M: The 2×EGFR (ErbB1) T790M/Tyr 04 mixture is prepared in 50 mM HEPES pH 6.5, 0.01% BRIJ-35, 10 mM MgCl2, 1 mM EGTA, 0.02% NaN3. The final 10 μL Kinase Reaction consists of 3.9-30.2 ng EGFR (ErbB1) T790M and 2 μM Tyr 04 in 50 mM HEPES pH 7.0, 0.01% BRIJ-35, 10 mM MgCl2, 1 mM EGTA, 0.01% NaN3. After the 1 hour Kinase Reaction incubation, 5 μL of a 1:64 dilution of Development Reagent B is added. • (iii) Peptide/Kinase Mixtures for measurement of EGFR (ErbB1) L858R/T790M: The 2×EGFR (ErbB1) T790M L858R/Tyr 04 mixture is prepared in 50 mM HEPES pH 6.5, 0.01% BRIJ-35, 10 mM MgCl2, 1 mM EGTA, 0.02% NaN3. The final 10 μL Kinase Reaction consists of 0.38-4.22 ng EGFR (ErbB1) T790M L858R and 2 μM Tyr 04 in 50 mM HEPES pH 7.0, 0.01% BRIJ-35, 10 mM MgCl2, 1 mM EGTA, 0.01% NaN3. After the 1 hour Kinase Reaction incubation, 5 μL of a 1:64 dilution of Development Reagent B is added. • (iv) Peptide/Kinase Mixtures for measurement of BTK: The 2×BTK/Tyr 01 mixture is prepared in 50 mM HEPES pH 7.5, 0.010/BRIJ-35, 10 mM MgCl2, 1 mM EGTA. The final 10 μL Kinase Reaction consists of 1.04-10.4 ng BTK and 2 μM Tyr 01 in 50 mM HEPES pH 7.5, 0.01% BRIJ-35, 10 mM MgCl2, 1 mM EGTA. After the 1 hour Kinase Reaction incubation, 5 μL of a 1:256 dilution of Development Reagent B is added.
Reaction starts by 30-second shaking of mixture consisting of 2.5 μL 4× test compound, 5 μL 2× kinase reaction mixture and 2.5 μL 4×ATP Solution on Bar-coded Corning, low volume NBS, black 384-well plate (Corning Cat. #3676). Then the mixture is incubated for 60-minute at room temperature for the kinase reaction, followed by addition of 5 μL of a 1:1024 dilution of development reagent A and 30-second plate shake. The mixture is then incubated for another 60-minute at room temperature for development reaction. Finally fluorescence is read by plate reader.
The Z′-LYTE assay was carried out with ATP concentration at Km. The scale utilized in Tables 2-6 is as follows: ++ more than 50% inhibition and + less than 50% inhibition.
To determine IC50 of a compound against a kinase, a series of concentrations of the compound were tested for the inhibition. IC50 was calculated by plotting the concentration of compound vs the percentage of inhibition in treated wells using GraphPad Prism 5. […] The scale utilized in Table 7 is as follows: ++ less than 100 nM and + greater than 100 nM.

BTK, sequence (Q06187 whole entry): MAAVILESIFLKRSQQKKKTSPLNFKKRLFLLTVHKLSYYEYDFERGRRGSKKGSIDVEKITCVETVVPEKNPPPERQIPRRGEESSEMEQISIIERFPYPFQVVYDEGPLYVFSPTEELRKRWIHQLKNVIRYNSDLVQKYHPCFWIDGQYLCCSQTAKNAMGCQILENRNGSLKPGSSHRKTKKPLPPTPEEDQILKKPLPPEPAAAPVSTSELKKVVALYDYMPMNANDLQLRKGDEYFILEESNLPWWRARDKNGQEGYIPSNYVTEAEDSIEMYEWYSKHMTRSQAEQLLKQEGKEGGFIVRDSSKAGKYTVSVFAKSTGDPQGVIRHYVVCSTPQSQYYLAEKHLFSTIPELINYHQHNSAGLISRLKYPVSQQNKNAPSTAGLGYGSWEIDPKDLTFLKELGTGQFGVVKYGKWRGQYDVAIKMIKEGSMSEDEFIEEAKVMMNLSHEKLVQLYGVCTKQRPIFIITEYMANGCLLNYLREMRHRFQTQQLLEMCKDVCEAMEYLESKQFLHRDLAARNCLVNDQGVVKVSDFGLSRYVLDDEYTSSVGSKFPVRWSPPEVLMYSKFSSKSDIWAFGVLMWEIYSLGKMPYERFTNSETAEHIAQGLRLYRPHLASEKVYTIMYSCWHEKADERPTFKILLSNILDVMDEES

Structure (SMILES) | inhibition at 0.1 µM
C=CC(=O)N1CCCC(c2cc(-c3cccnc3)cc3cncnc23)C1 (stereo not drawn) [C031, 1-(3-(6-(pyridin-3-yl)quinazolin-8-yl)piperidin-1-yl)prop-2-en-1-one] | < 50%
C=CC(=O)N1CCC(n2c(-c3ccccc3Cl)nc3cncnc32)C1 (stereo not drawn) [C033, 1-(3-(8-(2-chlorophenyl)-9H-purin-9-yl)pyrrolidin-1-yl)prop-2-en-1-one] | < 50%
C=CC(=O)Nc1cccc(-c2cc(-c3ccc(C(=O)Nc4cc(C)ccn4)cc3)cc3cnc(N)nc23)c1 [C036, 4-(8-(3-acrylamidophenyl)-2-aminoquinazolin-6-yl)-N-(4-methylpyridin-2-yl)benzamide] | < 50%
C=CC(=O)N1CCCC(c2ccc(-c3ccc(C(=O)Nc4ccccn4)cc3)c3cncnc23)C1 (stereo not drawn) [C037, 4-(8-(1-acryloylpiperidin-3-yl)quinazolin-5-yl)-N-(pyridin-2-yl)benzamide] | < 50%
C=CC(=O)Nc1cccc(-c2cc(-c3ccc(C(=O)Nc4ccccn4)cc3)cc3cnc(N)nc23)c1 [C040, 4-(8-(3-acrylamidophenyl)-2-aminoquinazolin-6-yl)-N-(pyridin-2-yl)benzamide] | < 50%
C=CC(=O)N1CCC(c2cc(-c3ccccc3)cc3cncnc23)C1 (stereo not drawn) [C047, 1-(3-(6-phenylquinazolin-8-yl)pyrrolidin-1-yl)prop-2-en-1-one] | > 50%
C=CC(=O)N1CCC(c2cc(-c3ccc(Oc4ccccc4)cc3)cc3cncnc23)C1 (stereo not drawn) [C048, 1-(3-(6-(4-phenoxyphenyl)quinazolin-8-yl)pyrrolidin-1-yl)prop-2-en-1-one] | > 50%
C=CC(=O)N1CCC(c2ccc(-c3ccc(C(=O)Nc4ccccn4)cc3)c3cncnc23)C1 (stereo not drawn) [C049, 4-(8-(1-acryloylpyrrolidin-3-yl)quinazolin-5-yl)-N-(pyridin-2-yl)benzamide] | < 50%
C=CC(=O)Nc1cccc(-c2cc(-c3ccc(C(=O)Nc4ccccc4)cc3)cc3cncnc23)c1 [C053, 4-(8-(3-acrylamidophenyl)quinazolin-6-yl)-N-phenylbenzamide] | > 50%
C=CC(=O)N1CCC(c2cc(-c3ccc(C(=O)Nc4ccccc4)cc3)n3cnccc23)C1 (stereo not drawn) [C054, 4-(5-(1-acryloylpyrrolidin-3-yl)pyrrolo[1,2-c]pyrimidin-7-yl)-N-phenylbenzamide] | < 50%
C=CC(=O)Nc1cccc(-c2cc(-c3cncc(C(F)(F)F)c3)cc3cncnc23)c1 [C055, N-(3-(6-(5-(trifluoromethyl)pyridin-3-yl)quinazolin-8-yl)phenyl)acrylamide] | > 50%
C=CC(=O)Nc1cccc(-c2cc(-c3ccc(Oc4ccccc4)cc3)n3cnccc23)c1 [C057, N-(3-(7-(4-phenoxyphenyl)pyrrolo[1,2-c]pyrimidin-5-yl)phenyl)acrylamide] | < 50%
C=CC(=O)Nc1cccc(-c2cc(-c3ccc(C(=O)Nc4ccccc4)nc3)cc3cnc(N)nc23)c1 [C059, 5-(8-(3-acrylamidophenyl)-2-aminoquinazolin-6-yl)-N-phenylpicolinamide] | < 50%
C=CC(=O)N1CCC(c2cc(-c3ccc(C(=O)Nc4ccccc4)nc3)cc3cncnc23)C1 (stereo not drawn) [C060, 5-(8-(1-acryloylpyrrolidin-3-yl)quinazolin-6-yl)-N-phenylpicolinamide] | < 50%
C=CC(=O)N1CCC(c2cc(-c3ccc(C(=O)Nc4ccccc4)cc3)cc3cncnc23)C1 (stereo not drawn) [C062, 4-(8-(1-acryloylpyrrolidin-3-yl)quinazolin-6-yl)-N-phenylbenzamide] | < 50%

Now from value to compound:

inhibition at 0.1 µM | Structure (SMILES)
< 50% | C=CC(=O)N1CCCC(c2cc(-c3ccc(Oc4ccccc4)cc3)cc3c(N)ncnc23)C1 (stereo not drawn) [C030, 1-(3-(4-amino-6-(4-phenoxyphenyl)quinazolin-8-yl)piperidin-1-yl)prop-2-en-1-one]
< 50% | C=CC(=O)N1CCC(n2c(-c3ccccc3F)nc3cncnc32)C1 (stereo not drawn) [C032, 1-(3-(8-(2-fluorophenyl)-9H-purin-9-yl)pyrrolidin-1-yl)prop-2-en-1-one]
< 50% | C=CC(=O)N1CCCC(c2cc(-c3ccccc3)cc3c(N)ncnc23)C1 (stereo not drawn) [C034, 1-(3-(4-amino-6-phenylquinazolin-8-yl)piperidin-1-yl)prop-2-en-1-one]
> 50% | C=CC(=O)Nc1cccc(-c2cc(-c3ccc(C)nc3)cc3cnc(N)nc23)c1 [C038, N-(3-(2-amino-6-(6-methylpyridin-3-yl)quinazolin-8-yl)phenyl)acrylamide]
< 50% | C=CC(=O)Nc1cccc(-c2ccc(-c3ccc(C(=O)Nc4ccccn4)cc3)c3cncnc23)c1 [C039, 4-(8-(3-acrylamidophenyl)quinazolin-5-yl)-N-(pyridin-2-yl)benzamide]
> 50% | C=CC(=O)Nc1cccc(-c2cc(-c3ccc(C(=O)Nc4cc(C)ccn4)cc3)cc3cncnc23)c1 [C041, 4-(8-(3-acrylamidophenyl)quinazolin-6-yl)-N-(4-methylpyridin-2-yl)benzamide]
< 50% | C=CC(=O)N1CCC(c2cc(-c3cccnc3)cc3cncnc23)C1 (stereo not drawn) [C043, 1-(3-(6-(pyridin-3-yl)quinazolin-8-yl)pyrrolidin-1-yl)prop-2-en-1-one]
< 50% | C=CC(=O)Nc1cccc(-c2cc(-c3ccc(C(=O)Nc4ccccn4)cc3)n3cnccc23)c1 [C044, 4-(5-(3-acrylamidophenyl)pyrrolo[1,2-c]pyrimidin-7-yl)-N-(pyridin-2-yl)benzamide]
< 50% | C=CC(=O)N1CCCC(c2cc(-c3cccnc3)cc3cnc(N)nc23)C1 (stereo not drawn) [C045, 1-(3-(2-amino-6-(pyridin-3-yl)quinazolin-8-yl)piperidin-1-yl)prop-2-en-1-one]
< 50% | C=CC(=O)N1CCC(c2cc(-c3ccc(C(=O)Nc4ccccn4)cc3)n3cnccc23)C1 (stereo not drawn) [C046, 4-(5-(1-acryloylpyrrolidin-3-yl)pyrrolo[1,2-c]pyrimidin-7-yl)-N-(pyridin-2-yl)benzamide]
> 50% | C=CC(=O)Nc1cccc(-c2cc(-c3ccc(C(=O)Nc4ccccc4)nc3)cc3cncnc23)c1 [C050, 5-(8-(3-acrylamidophenyl)quinazolin-6-yl)-N-phenylpicolinamide]
< 50% | C=CC(=O)N1CCC(c2ccc(-c3ccc(C(=O)Nc4ccccn4)cc3)c3c(N)ncnc23)C1 (stereo not drawn) [C056, 4-(8-(1-acryloylpyrrolidin-3-yl)-4-amino-quinazolin-5-yl)-(N-pyridin-2-yl)benzamide]
< 50% | C=CC(=O)N1CCC(c2cc(-c3ccc(C(=O)Nc4cccc(C(F)(F)F)c4)cc3)n3cnccc23)C1 (stereo not drawn) [C058, 4-(5-(1-acryloylpyrrolidin-3-yl)pyrrolo[1,2-c]pyrimidin-7-yl)-N-(3-(trifluoro-methyl)phenyl)benzamide]
> 50% | C=CC(=O)Nc1cccc(-c2cc(-c3ccc(Oc4ccccc4)nc3)cc3cncnc23)c1 [C061, N-(3-(6-(6-phenoxypyridin-3-yl)quinazolin-8-yl)phenyl)acrylamide]

Same assay, conditions: series of concentrations; GraphPad Prism 5

Structure (SMILES) | IC50
C=CC(=O)N1CCC(c2cc(-c3ccc(Oc4ccccc4)cc3)cc3cncnc23)C1 (stereo not drawn) [C048, 1-(3-(6-(4-phenoxyphenyl)quinazolin-8-yl)pyrrolidin-1-yl)prop-2-en-1-one] | < 100 nM
C=CC(=O)Nc1cccc(-c2cc(-c3ccc(C(=O)Nc4ccccc4)cc3)cc3cncnc23)c1 [C053, 4-(8-(3-acrylamidophenyl)quinazolin-6-yl)-N-phenylbenzamide] | < 100 nM

Second part, the compound after the results:

IC50 | Structure (SMILES)
< 100 nM | C=CC(=O)Nc1cccc(-c2cc(-c3ccc(C)nc3)cc3cnc(N)nc23)c1 [C038, N-(3-(2-amino-6-(6-methylpyridin-3-yl)quinazolin-8-yl)phenyl)acrylamide]
< 100 nM | C=CC(=O)Nc1cccc(-c2cc(-c3ccc(Oc4ccccc4)nc3)cc3cncnc23)c1 [C061, N-(3-(6-(6-phenoxypyridin-3-yl)quinazolin-8-yl)phenyl)acrylamide]
